Reference: patent US20180250306A1, “ALDEHYDE CONJUGATES AND USES THEREOF” (ALDEYRA THERAPEUTICS, INC., priority 2015, published 2018)

Tests used:
α-SMA = assay: Western Blot of α-SMA in cardiac fibroblasts; format: cell-based, neonatal rats; conditions: for α-SMA level (Western Blot): H2O2 stimulated cardiac fibroblasts
Description: (§1) Thirty hearts from neonatal rats were minced and digested (Neonatal Cardiomyocyte Isolation System, LK003303, Worthington). After tissue digestion and cell dissociation, cell suspensions were plated into 35 mm dishes or onto coverslips in wells of 24-well plates. Serum-free DMEM was added to the cell suspensions and the cells allowed to adhere for 2 hrs. After two hours, the cell suspension was removed and the adherent cells were fed with DMEM containing 10% fetal bovine serum (FBS). Cells were maintained in DMEM+10% FBS for 24 hours before treatments. Treatment duration was 24 hours.
(§2) Cell samples were divided in to 2 groups, stimulated with H2O2 or not stimulated with H2O2. […] The cells that were treated with H2O2 contained a final concentration of 0.001% in the wells. Drug was dissolved in 9.5% Captisol®, to a stock concentration of 5 mg/ml. […] Cells were treated for 24 hours then either fixed for immunostaining or collected as lysates for Western Blot analysis.
Whole cell lysates were used for Western blotting; nuclear and cytosolic fractions were not prepared. DMEM from cells plated in 35 mm plates was removed, the cells rinsed quickly in PBS, then incubated in 500 ul cold RIPA buffer for 20-30 minutes at 4° C. under gentle rocking. Following RIPA incubation, cells were scraped from the dish using cell scrapers and frozen at −80° C. overnight to increase cell lysing. Once thawed, cells were sonicated for 1 minute at 80% maximal power (Biologics Model 150 B/T). Samples were centrifuged at 13K for 10 min at 4° C. then supernatant was separated from pellet for analysis by gel electrophoresis. BCA protein analysis was run to determine total protein, samples normalized to 0.2 ug/uL, and then loaded onto Novex 8% Bolt gels. Gels were run for 35 min at 200 V in MOPS buffer or until the lower molecular weight band reached the bottom of the gel. Protein was then transferred to Hybond 0.45 uM Nitrocellulose (GE Healthcare) for 1 hour. Blots were blocked for 1 hr at room temperature in 5% BSA/TBSt. […]

NFκB [1] = assay: NFκB translocation to the nucleus of cardiac fibroblasts (immunostaining); format: cell-based, neonatal rats; conditions: unstimulated cells; for cells with NFκB localization in nuclei: 24 hours (untreated 76.6%)
Description: as §1, §2
After 24 hours of treatment, cells on cover slips were rinsed twice with PBS, fixed in 1% paraformaldehyde for 10 minutes then rinsed in PBS for immunostaining. Cells were permeabilized for 18 minutes in 0.1% Triton-X 100 in PBS, then rinsed three times in PBS for 15 minutes each. Following the rinses, cover slips were incubated in Image-IT FX Signal Enhancer (Invitrogen) to reduce background intensities in images. Subsequently, cells were washed three times 15 min with PBS, followed by one hour of blocking in 10% Normal Goat Serum Cells and 0.05% Triton-X 100, and then incubated overnight in 4° C. with primary antibodies diluted in PBS with 2% Normal Goat Serum and 0.05% Triton-X 100. Antibodies were applied at the following concentrations: Alpha-Smooth Muscle Actin 1:200 (V5228, Sigma-Aldrich), Vimentin 1:200 (V6630, Sigma-Aldrich) and NFκB 1:200 (C-20, Santa Cruz Biotech). Following overnight incubation, cover slips were brought to room temperature over 10 minutes and then rinsed in PBS for 15 min. […]

NFκB [2] = assay: Western Blot of NFκB levels in cardiac fibroblasts; format: cell-based, neonatal rats
Description: as §1, §2
(§3) Whole cell lysates were used for Western blotting; nuclear and cytosolic fractions were not prepared. DMEM from cells plated in 35 mm plates was removed, the cells rinsed quickly in PBS, then incubated in 500 ul cold RIPA buffer for 20-30 minutes at 4° C. under gentle rocking. Following RIPA incubation, cells were scraped from the dish using cell scrapers and frozen at −80° C. overnight to increase cell lysing. […]

IL-1β = assay: Western Blot of IL-1β levels in cardiac fibroblasts; format: cell-based, neonatal rats; conditions: p<0.01
Description: as §1, §2, §3

JNK = assay: Western Blot of MAPK signaling pathways in cardiac fibroblasts; format: cell-based, neonatal rats; conditions: NS2 treatment at any level; single blot
Description: as §1, §2, §3

circulating cytokines [3] = assay: LPS model of inflammation in the mouse, ELISA of circulating cytokines; format: in vivo, mice
Description: Male C57BI/6 mice are dosed with disclosed compounds 30 minutes before they are exposed to LPS (20 mg/kg). Two hours after the LPS exposure, blood is collected from the mice and an ELISA is conducted to determine the amount of circulating cytokines. Treatment with disclosed compounds leads to reduction in proinflammatory cytokines, such as IL-5 and IL-1β, IL-17, and TNF. Also, treatment with disclosed compounds results in elevated anti-inflammatory cytokines, such as IL-10.

[4] = Aldehyde adduct formation over time (product HPLC peak)
Description: It is not possible to conclude if this is the result of poor dissociation (from cyclodextrin) or poor interaction with the aldehyde. Best fit lines over this period give excellent fit to data. […] It can be used to relatively rank each of the samples examined, including NS2. The data were first evaluated over a 7 h time window.

[5] = tested on: Primary rat cortical cultures; assay: LDH cytotoxicity assay, aldehyde-mediated cell death in neurons; format: cell-based
Description: Primary rat cortical cultures are placed in an incubator for 24 or 48 hours and treated with various concentrations of disclosed compounds. Then 20 μL of the culture media is removed for an LDH assay as described in Bergmeyer et al., Methods of Enzymatic Analysis, 3rd ed. (1983).

circulating cytokines [6] = conditions: LPS model, mouse; cited from earlier work
[7] = hamster cheek pouch radiation; cited from earlier work
[8] = rank from most effective (1) to least

In the case of `CC(C)(O)c1nc2ccc(Cl)cc2cc1N` [NS2, 2-(3-amino-6-chloroquinolin-2-yl)propan-2-ol], the “α-SMA level (Western Blot)” value (α-SMA; 10 μM) is reported as “no significant change”, the “α-SMA level (Western Blot)” value (α-SMA; increased dose (100 μM, 1 mM), p<0.01) is reported as “further α-SMA decreases, which were significant” and the “α-SMA level (Western Blot) compared to control” value (α-SMA; non-stimulated cardiac fibroblasts, 10 μM, 100 μM, 1 mM) is reported as “significant decreases”. For the same molecule, the “cells with NFκB localization in nuclei” value (NFκB [1]; 10 μM) was 30.7%, the “cells with NFκB localization in nuclei” value (NFκB [1]; 100 μM) was 35.7% and the “cells with nuclear NFκB” value (NFκB [1]; 1 mM, very few cells, not conclusive) was “no cells”. The “NFκB level (Western Blot, whole cell lysate)” value (NFκB [2]; H2O2-stimulated cells, 100 μM or 1 mM) was “significant decreases”, the “NFκB level (Western Blot, whole cell lysate)” value (NFκB [2]; non-stimulated cells) was “significantly decreased” and the “IL-1β levels (Western Blot)” value (IL-1β; H2O2-stimulated cells) was “significant decreases”. The “IL-1β levels (Western Blot)” value (IL-1β; unstimulated cells) was “significant decreases”, the “JNK-pJNK (Western Blot)” value (JNK) was “no changes” and the pro-inflammatory cytokines (circulating cytokines [3]; such as IL-5, IL-1β, IL-17, TNF) was “downregulate”. For the same molecule, the anti-inflammatory cytokines (circulating cytokines [3]; such as IL-10) was “upregulate”, the “Gradient of product HPLC peak increase (rate of adduct formation)” value ([4]; 7 h time window) was “(Gradient 2.22,” and the “Gradient of product HPLC peak increase (rate of adduct formation)” value ([4]; 23 h time window) was “(Gradient 1.33,”. The “Formation of Product, ranking, 7 Hours” value [4, 8] was 2, the “Formation of Product, ranking, 23 Hours” value [4, 8] was 2 and the “aldehyde-mediated cell death in neurons” value [5] was “prevent”. For the same molecule, the “activation of IL-1β” value (circulating cytokines [6]) was “significantly decreased”, the “activation of IL-17” value (circulating cytokines [6]) was “significantly decreased” and the “activation of TGF-β” value (circulating cytokines [6]) was “significantly decreased”. For the same molecule, the “levels of the anti-inflammatory cytokine Interleukin 10 (IL-10)” value (circulating cytokines [6]) was “significantly increasing”, the “overall fibrosis at the site of injury over time” value [7] was “decrease” and the “rate of recovery from injury” value [7] was “significant increase”.
